Data from BindingDB's records for doi:10.1021/jm00028a009 (Cambridge Neuroscience, 1994).

target: Sigma non-opioid intracellular receptor 1 (Cavia porcellus); test: Tested in vitro for the concentration required to inhibit specific [3H]DTG radioligand binding to sigma receptor on guinea pig brain membrane

Compound | IC50 [nM]
CN(C(=N)N(c1ccccc1)c1cccc2ccccc12)c1cccc2ccccc12 [N-Methyl-N,N'-di-naphthalen-1-yl-N'-phenyl-guanidine] | 11000
CN(C(N)=Nc1cccc(N)c1)c1cccc2ccccc12 [N'-(3-Amino-phenyl)-N-methyl-N-naphthalen-1-yl-guanidine] | 13000
COc1cccc(N=C(N)Nc2cccc(OC)c2)c1 [N,N'-Bis-(3-methoxy-phenyl)-guanidine] | 351
CCc1cccc(N(C)C(=N)N(C)c2cccc3ccccc23)c1 [N-(3-Ethyl-phenyl)-N,N'-dimethyl-N'-naphthalen-1-yl-guanidine] | 1210
N=C(N1CCc2ccccc21)N1CCc2ccccc21 [C-[Bis-(2,3-dihydro-indol-1-yl)]-methyleneamine] | 7180
CN(C(N)=Nc1cccc2ccccc12)c1ccccc1 [N-Methyl-N'-naphthalen-1-yl-N-phenyl-guanidine] | 2900
CCc1cccc(N=C(N)N(C)c2cccc3ccccc23)c1 [N'-(3-Ethyl-phenyl)-N-methyl-N-naphthalen-1-yl-guanidine] | 1000
CN(C(=N)N(C)c1cccc2ccccc12)c1cccc2ccccc12 [N,N'-Dimethyl-N,N'-di-naphthalen-1-yl-guanidine] | 10700
CN(C(N)=Nc1cccc2ccccc12)c1cccc2ccccc12 [N-Methyl-N,N'-di-naphthalen-1-yl-guanidine] | 4800
NC(=Nc1cccc2ccccc12)N(c1ccccc1)c1cccc2ccccc12 [N,N'-Di-naphthalen-1-yl-N-phenyl-guanidine] | 7930
CN(C(N)=Nc1cccc2ccccc12)c1cccc(N=[N+]=[N-])c1 [N-(3-Azido-phenyl)-N-methyl-N'-naphthalen-1-yl-guanidine] | 3020
C/[N+](=C(/[NH-])Nc1cccc([N+](=O)[O-])c1)c1cccc2ccccc12 [N-Methyl-N-naphthalen-1-yl-N'-(3-nitro-phenyl)-guanidine] | 2640
CCN(C(N)=Nc1cccc2ccccc12)c1cccc2ccccc12 [N-Ethyl-N,N'-di-naphthalen-1-yl-guanidine] | 6130
NC(=Nc1cccc2ccccc12)N1CCCCC1 [N-Naphthalen-1-yl-piperidine-1-carboxamidine] | 1070
CN(C(N)=Nc1cccc2ccccc12)c1cccc(N)c1 [N-(3-Amino-phenyl)-N-methyl-N'-naphthalen-1-yl-guanidine] | 2700
CN(/C(N)=N/c1cccc2ccccc12)c1cccc([N+](=O)[O-])c1 [N-Methyl-N'-naphthalen-1-yl-N-(3-nitro-phenyl)-guanidine] | 6260
NC(=Nc1cccc2ccccc12)N1CCCCCC1 [N-Naphthalen-1-yl-azepane-1-carboxamidine] | 1410
CCc1cccc(N(CC)C(N)=Nc2cccc3ccccc23)c1 [N-Ethyl-N-(3-ethyl-phenyl)-N'-naphthalen-1-yl-guanidine] | 2190

Other lines, results leading:

IC50 [nM] | Compound
91 | CC(C)c1ccccc1N=C(N)Nc1cccc2ccccc12 [N-(2-Isopropyl-phenyl)-N'-naphthalen-1-yl-guanidine]
92 | NC(=Nc1ccc2ccccc2c1)Nc1ccc2ccccc2c1 [N,N'-Di-naphthalen-2-yl-guanidine]
242 | CC(C)c1ccc(N=C(N)Nc2ccc(C(C)C)cc2)cc1
75 | Cc1cccc(NC(N)=Nc2cccc3ccccc23)c1 [N-Naphthalen-1-yl-N'-m-tolyl-guanidine]
8 | CCc1cccc(N=C(N)Nc2cccc(CC)c2)c1
247 | Cc1cccc(N=C(N)N(C)c2cccc(C)c2)c1 [N-Methyl-N,N'-di-m-tolyl-guanidine]
343 | NC(=Nc1cccc2ccccc12)N1CCC(c2ccccc2)CC1 [N-Naphthalen-1-yl-4-phenyl-piperidine-1-carboxamidine]
54 | CCc1cccc(NC(N)=Nc2cccc3ccccc23)c1 [N-(3-Ethyl-phenyl)-N'-naphthalen-1-yl-guanidine]
165 | NC(=Nc1cccc2ccccc12)Nc1cccc2ccccc12
96 | CC(C)c1cccc(N=C(N)Nc2cccc(C(C)C)c2)c1
40 | NC(=Nc1cccc2ccccc12)Nc1ccccc1I [N-(2-Iodo-phenyl)-N'-naphthalen-1-yl-guanidine]
60 | CCc1cccc(N=C(N)N2CCC(c3ccccc3)CC2)c1 [N-(3-Ethyl-phenyl)-4-phenyl-piperidine-1-carboxamidine]
29 | NC(=Nc1cccc2c1CCC2)Nc1cccc2c1CCC2 [N,N'-Di-indan-4-yl-guanidine]
33 | NC(=Nc1ccc(Br)cc1)Nc1ccc(Br)cc1
